Experimental findings from ChEMBL document CHEMBL5214911, “Chemical update on the potential for serotonin 5-HT6 and 5-HT7 receptor agents in the treatment of Alzheimer's disease” (Bioorg Med Chem Lett, 2021) are described below.

What is called Ki is a measure of affinity in units of concentration, obtained from inhibition or displacement.

Bounds are passed on as bounds.

Test [1] addresses 5-hydroxytryptamine receptor 7 (Homo sapiens, UniProt P34969). Description: Binding affinity to 5-HT7R (unknown origin) assessed as inhibition constant.
The target of test [2] is T1, 5-hydroxytryptamine receptor 1A (Homo sapiens, UniProt P08908).
T1 sequence (P08908 whole entry): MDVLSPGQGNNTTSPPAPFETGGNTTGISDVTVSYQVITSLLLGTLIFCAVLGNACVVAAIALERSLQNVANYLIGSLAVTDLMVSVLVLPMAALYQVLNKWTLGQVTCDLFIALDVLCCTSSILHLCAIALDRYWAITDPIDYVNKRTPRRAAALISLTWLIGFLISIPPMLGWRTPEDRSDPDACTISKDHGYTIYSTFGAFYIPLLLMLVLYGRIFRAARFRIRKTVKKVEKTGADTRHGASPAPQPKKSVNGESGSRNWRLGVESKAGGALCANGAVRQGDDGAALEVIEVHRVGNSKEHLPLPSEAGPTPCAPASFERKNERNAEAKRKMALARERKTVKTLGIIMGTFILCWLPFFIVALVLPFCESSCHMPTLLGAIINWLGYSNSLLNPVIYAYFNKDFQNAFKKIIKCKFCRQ
Put plainly: Binding affinity to 5-HT1A (unknown origin) assessed as inhibition constant.

The target in test [3] is T2, 5-hydroxytryptamine receptor 6 (Homo sapiens, UniProt P50406). Description: Binding affinity to 5-HT6R (unknown origin) assessed as inhibition constant.
The target of test [4] is T3, Alpha-2C adrenergic receptor (Homo sapiens, UniProt P18825).
T3 sequence (P18825 whole entry): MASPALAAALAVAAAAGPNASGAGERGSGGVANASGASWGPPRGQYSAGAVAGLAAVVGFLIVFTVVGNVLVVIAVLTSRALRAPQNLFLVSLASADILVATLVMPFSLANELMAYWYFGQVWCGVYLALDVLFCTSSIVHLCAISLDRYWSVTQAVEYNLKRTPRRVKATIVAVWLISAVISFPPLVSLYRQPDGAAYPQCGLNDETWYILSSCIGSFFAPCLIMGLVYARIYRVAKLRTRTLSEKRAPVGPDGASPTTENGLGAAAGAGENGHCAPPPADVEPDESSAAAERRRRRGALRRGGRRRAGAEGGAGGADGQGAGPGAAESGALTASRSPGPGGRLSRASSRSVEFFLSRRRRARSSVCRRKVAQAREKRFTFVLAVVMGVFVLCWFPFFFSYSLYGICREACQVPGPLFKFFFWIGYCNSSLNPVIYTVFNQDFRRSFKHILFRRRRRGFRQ
Put plainly: Binding affinity to alpha2C AR (unknown origin) assessed as inhibition constant.

Test [5] has as its target T2, 5-hydroxytryptamine receptor 6. Put plainly: Displacement of [125I]cAMP-tracer from 5-HT6R in human HeLa cells assessed as measuring cAMP level incubated for 15 mins by radioimmunoassay. Format: cell-based.

Chain of 5-hydroxytryptamine receptor 7 (P34969 whole entry): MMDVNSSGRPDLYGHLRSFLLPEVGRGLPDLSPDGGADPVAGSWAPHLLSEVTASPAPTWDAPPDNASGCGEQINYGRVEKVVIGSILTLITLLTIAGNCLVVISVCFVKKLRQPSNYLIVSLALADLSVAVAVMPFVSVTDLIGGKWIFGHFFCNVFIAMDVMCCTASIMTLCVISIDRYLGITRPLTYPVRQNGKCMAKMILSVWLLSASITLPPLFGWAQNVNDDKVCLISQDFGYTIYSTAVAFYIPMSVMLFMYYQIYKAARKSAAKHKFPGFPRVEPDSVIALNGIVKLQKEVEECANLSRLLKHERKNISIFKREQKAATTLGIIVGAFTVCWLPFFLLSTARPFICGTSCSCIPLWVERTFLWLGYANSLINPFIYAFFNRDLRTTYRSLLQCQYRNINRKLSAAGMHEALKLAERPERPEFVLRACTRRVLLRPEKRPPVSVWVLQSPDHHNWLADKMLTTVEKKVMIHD
T2 sequence (P50406 whole entry): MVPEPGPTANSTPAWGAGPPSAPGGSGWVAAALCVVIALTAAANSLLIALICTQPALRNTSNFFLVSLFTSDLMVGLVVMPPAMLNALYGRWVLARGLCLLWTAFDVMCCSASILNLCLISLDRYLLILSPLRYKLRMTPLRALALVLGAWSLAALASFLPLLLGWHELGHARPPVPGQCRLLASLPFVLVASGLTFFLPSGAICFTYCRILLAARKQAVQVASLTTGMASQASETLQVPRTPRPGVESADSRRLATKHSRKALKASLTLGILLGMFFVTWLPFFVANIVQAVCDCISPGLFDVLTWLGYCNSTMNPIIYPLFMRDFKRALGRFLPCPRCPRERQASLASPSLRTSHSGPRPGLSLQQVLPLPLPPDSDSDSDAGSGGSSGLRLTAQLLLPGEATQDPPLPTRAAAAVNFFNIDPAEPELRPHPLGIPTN

In the case of `CCOCC(Oc1c(C)cccc1Cl)N1CCN(c2ccccc2OC)CC1` (stereo not given), the Ki in test [1] is 34 nM; in test [2], less than 1 nM; in test [3] it was 9620 nM.
For `O=C1C2C3CCC(C3)C2C(=O)N1CC1CCCCC1CN1CCN(c2nsc3ccccc23)CC1` (stereo not given), the Ki in test [4] worked out at 11 nM.
In the case of `CCOCC(Oc1c(C)cccc1C)N1CCN(c2ccccc2OC)CC1` (stereo not given), the Ki in test [1] stood at 156 nM; in test [2], 41 nM; in test [3], 9970 nM.
As for `COc1cc(NS(=O)(=O)c2ccc(OC)c(N3CCNCC3)c2)c(Cl)cc1Cl`, the Ki in test [5] was 0.98 nM.
For `Clc1ccc(-c2nn(Cc3ccccc3)c3c2CCNCC3)cc1` [JNJ-18038683 FREE BASE], in test [1], the inhibition constant Ki was determined as 3 nM.
The same measure, in the same setting: the value for `CCN1CCCC1CNC(=O)c1cc(S(N)(=O)=O)ccc1OC` (stereo not given) [SULPIRIDE] was greater than 3000 nM.
